The text below walks through data of patent publication US6844352B2, “1′-[4-[1-(4-fluorophenyl)-1H-indole-3-yl]-1-butyl]-spiro[isobenzofuran-1(3H),4′-piperidine] hydrohalogenides” (H. Lundbeck A/S, priority 1997, dated 2005).

A short description of series [1]: Bioavailability study after multiple oral administration in Beagle dogs (serum levels by HPLC). Type of series: in vivo. The note with it: both sexes, dog, area under serum concentration versus time curve 0-24 hours after dosing on day 7, 10 mg/kg/day (as free base) orally in gelatine capsules for 7 days, read-out: AUC0-24.7 Mean. On the procedure: After multiple administration in Beagle dogs, the bioavailability of the salts of 1′-[4-[1-(4-fluorophenyl)-1H-indole-3-yl]-1-butyl]-spiro[isobenzofuran-1(3H),4′-piperidine] was investigated as described in the following study:
Two groups, each consisting of four Beagle dogs (2 males and 2 females) were used in the study.
The dogs in the individual groups were given single daily doses of 10 mg/kg/day (calculated as free base) of the fumarate and the hydrochloride of 1′-[4-[1-(4-fluorophenyl)-1H-indole-3-yl]-1-butyl]-spiro[isobenzofuran-1(3H),4′-piperidine] for seven days.
Blood samples for serum preparation were drawn from the test animals at specific nominal time points before and after dosing on each day and analyzed using HPLC. […]
Single doses of the different salts corresponding to 10.0 mg (˜21997 nmol ) of 1′-[4-[1-(4-fluorophenyl)-1H-indole-3-yl]-1-butyl]-spiro[isobenzofuran-1(3H),4′-piperidine] per kg body weight were accurately weighed into gelatine capsules. The calculated amounts of test compound for each dog were based on body weights measured at study start. […]
The exact blood sampling times for each dog relative to the first dose were recorded. […]
The serum samples obtained were analysed for content of 1′-[4-[1-(4-fluorophenyl)-1H-indole-3-yl]-1-butyl]-spiro[isobenzofuran-1(3H),4′-piperidine] by a pseudo-normal phase HPLC-method after liquid-liquid extraction. […]

Series [2] can be described thus: Bioavailability experiments in rats. Type of series: in vivo.
The next series can be described thus: Aqueous solubility. Type of series: physicochemical.
Series [3] is described as follows: Bioavailability experiments in dogs. Type of series: in vivo.
The next series concerns rats. To be noted: cited from earlier work.
Another series concerns sigma receptors. To be noted: cited from earlier work.
The subject of another series is sigma receptor. The note with it: cited from earlier work.

In the case of `Fc1ccc(-n2cc(CCCCN3CCC4(CC3)OCc3ccccc34)c3ccccc32)cc1.O=C(O)/C=C/C(=O)O` [Fumarate, 1′-[4-[1-(4-fluorophenyl)-1H-indole-3-yl]-1-butyl]-spiro[isobenzofuran-1(3H),4′-piperidine], fumarate], in series [1], the AUC(0-t) amounted to 4.02 µM·h. The bioavailability entry in series [2] and in series [3] was “limited bioavailablity” in each case. For the same compound, the aqueous solubility entry in the series “Aqueous solubility” is “very low”.
Take `Cl.Fc1ccc(-n2cc(CCCCN3CCC4(CC3)OCc3ccccc34)c3ccccc32)cc1` [Hydrochloride, 1′-[4-[1-(4-fluorophenyl)-1H-indole-3-yl]-1-butyl]-spiro[isobenzofuran-1(3H),4′-piperidine], hydrochloride]: the AUC(0-t) in series [1] was determined as 12 µM·h. For the same compound, the “water solubility compared to the fumarate” value in the series “Aqueous solubility” is listed as “improved water solubility”.
As for `Fc1ccc(-n2cc(CCCCN3CCC4(CC3)OCc3ccccc34)c3ccccc32)cc1` [free base, 1′-[4-[1-(4-fluorophenyl)-1H-indole-3-yl]-1-butyl]-spiro[isobenzofuran-1(3H),4′-piperidine]], the aqueous solubility entry in the series “Aqueous solubility” is recorded as “very low”. Moreover, in the series with rats, the “anxiolytic potential in black/white exploration test” value is “active over a large dose range”. For the same compound, the “sigma ligand potency and selectivity” value in the series on sigma receptors was “potent and selective sigma ligand”.
`C[C@@H]1CN(CCCn2c3ccccc3c3ccccc32)C[C@H](C)N1` [rimcazole]: the “clinical effect in the treatment of psychoses” value in the series on sigma receptor was “clinically shows effect”.
